Experimental data from ChEMBL document CHEMBL4831559, “Antitarget Selectivity and Tolerability of Novel Pyrrolo[2,3-d]pyrimidine RET Inhibitors” (ACS Med Chem Lett, 2021).
The source made the active and inactive calls. The rule behind the calls is not given here.

Tests used:
BaF3 [1] = experiment: cells; settings: Mus musculus, BaF3, 48 h
Description: Antiproliferative activity against mouse BaF3 cells assessed as reduction in cell proliferation incubated for 48 hrs by cell proliferation assay

[2] = Cmax in BALB/c mouse at 13.5 mg/kg, po measured by LC-MS/MS analysis; type: ADME, organism-based; design: route oral, dose 13.5 mg/kg; settings: in vivo
[3] = AUC in BALB/c mouse at 3.4 mg/kg, iv measured by LC-MS/MS analysis; type: ADME, organism-based; design: dose 3.4 mg/kg; settings: in vivo
Bcr/Abl fusion protein = Bcr/Abl fusion protein (Homo sapiens, UniProt P00519); experiment: Inhibition of BCR-ABL (unknown origin) expressed in mouse BaF3 cells assessed as reduction in cell proliferation incubated for 48 hrs by cell proliferation assay; type: cell-based
Chain of Bcr/Abl fusion protein (P00519 whole entry, the tested form may be a part): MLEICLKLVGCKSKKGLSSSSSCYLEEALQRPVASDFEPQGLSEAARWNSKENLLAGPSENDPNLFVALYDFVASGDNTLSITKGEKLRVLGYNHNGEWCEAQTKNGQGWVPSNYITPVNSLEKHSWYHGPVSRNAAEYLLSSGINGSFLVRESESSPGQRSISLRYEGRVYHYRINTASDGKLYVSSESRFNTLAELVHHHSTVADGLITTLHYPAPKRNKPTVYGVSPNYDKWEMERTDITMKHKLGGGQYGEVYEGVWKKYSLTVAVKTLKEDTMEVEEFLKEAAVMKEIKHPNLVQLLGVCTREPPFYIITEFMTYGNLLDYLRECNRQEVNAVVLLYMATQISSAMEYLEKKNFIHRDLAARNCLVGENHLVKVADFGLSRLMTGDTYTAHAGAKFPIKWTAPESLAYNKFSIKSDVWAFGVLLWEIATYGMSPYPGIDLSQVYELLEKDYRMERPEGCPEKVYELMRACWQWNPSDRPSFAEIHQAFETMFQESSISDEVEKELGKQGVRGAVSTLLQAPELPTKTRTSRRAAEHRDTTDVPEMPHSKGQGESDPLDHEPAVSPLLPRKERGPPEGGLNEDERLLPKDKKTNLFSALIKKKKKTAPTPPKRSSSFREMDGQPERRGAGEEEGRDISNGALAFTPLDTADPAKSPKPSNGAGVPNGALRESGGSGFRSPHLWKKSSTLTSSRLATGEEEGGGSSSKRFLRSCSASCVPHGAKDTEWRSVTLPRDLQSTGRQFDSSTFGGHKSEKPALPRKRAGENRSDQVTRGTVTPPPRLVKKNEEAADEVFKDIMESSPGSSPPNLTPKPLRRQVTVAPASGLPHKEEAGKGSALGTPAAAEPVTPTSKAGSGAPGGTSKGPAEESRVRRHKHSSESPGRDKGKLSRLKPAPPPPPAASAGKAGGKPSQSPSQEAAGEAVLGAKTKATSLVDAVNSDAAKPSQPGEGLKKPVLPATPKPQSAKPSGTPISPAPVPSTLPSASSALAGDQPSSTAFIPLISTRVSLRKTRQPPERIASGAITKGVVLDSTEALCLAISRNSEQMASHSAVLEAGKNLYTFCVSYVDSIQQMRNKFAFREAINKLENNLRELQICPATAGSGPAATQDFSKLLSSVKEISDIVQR
Chain of Bcr/Abl fusion protein (P11274 whole entry, further chain, the tested form may be a part): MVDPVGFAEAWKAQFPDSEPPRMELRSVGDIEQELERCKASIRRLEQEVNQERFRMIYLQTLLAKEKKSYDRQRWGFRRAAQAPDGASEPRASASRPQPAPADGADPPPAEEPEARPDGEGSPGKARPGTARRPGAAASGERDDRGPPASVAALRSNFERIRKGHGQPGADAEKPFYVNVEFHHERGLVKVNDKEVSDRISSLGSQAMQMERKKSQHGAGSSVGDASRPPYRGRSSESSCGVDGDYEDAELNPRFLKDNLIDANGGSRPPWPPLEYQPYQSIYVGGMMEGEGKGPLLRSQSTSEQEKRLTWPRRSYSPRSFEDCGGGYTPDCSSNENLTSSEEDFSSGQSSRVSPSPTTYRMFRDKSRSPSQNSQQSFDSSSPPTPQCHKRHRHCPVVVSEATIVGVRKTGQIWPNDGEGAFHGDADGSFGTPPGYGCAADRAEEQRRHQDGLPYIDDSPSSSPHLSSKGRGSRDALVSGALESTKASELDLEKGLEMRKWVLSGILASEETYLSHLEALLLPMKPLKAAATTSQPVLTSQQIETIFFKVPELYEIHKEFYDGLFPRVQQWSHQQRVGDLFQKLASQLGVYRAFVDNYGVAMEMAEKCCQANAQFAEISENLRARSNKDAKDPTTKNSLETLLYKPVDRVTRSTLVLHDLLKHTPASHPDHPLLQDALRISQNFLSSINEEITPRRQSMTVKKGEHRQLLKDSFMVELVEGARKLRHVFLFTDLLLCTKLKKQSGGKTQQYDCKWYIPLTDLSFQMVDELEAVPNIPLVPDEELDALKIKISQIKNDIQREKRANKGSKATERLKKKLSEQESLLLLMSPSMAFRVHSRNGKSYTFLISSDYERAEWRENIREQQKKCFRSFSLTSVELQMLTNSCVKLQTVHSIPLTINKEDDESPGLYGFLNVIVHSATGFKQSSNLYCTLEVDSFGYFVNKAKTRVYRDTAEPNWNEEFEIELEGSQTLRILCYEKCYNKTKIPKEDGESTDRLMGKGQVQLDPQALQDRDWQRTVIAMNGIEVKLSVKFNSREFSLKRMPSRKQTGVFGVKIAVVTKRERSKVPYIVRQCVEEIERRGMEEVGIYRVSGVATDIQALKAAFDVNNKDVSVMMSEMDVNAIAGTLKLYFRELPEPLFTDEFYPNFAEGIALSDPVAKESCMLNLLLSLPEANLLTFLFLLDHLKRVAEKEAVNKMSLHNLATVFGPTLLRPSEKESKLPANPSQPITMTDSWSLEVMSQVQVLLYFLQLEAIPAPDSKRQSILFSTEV

[4] = AUC in BALB/c mouse at 13.5 mg/kg, po measured by LC-MS/MS analysis; type: ADME, organism-based; design: dose 13.5 mg/kg; settings: in vivo
[5] = Volume of distribution at steady state in BALB/c mouse at 3.4 mg/kg, iv measured by LC-MS/MS analysis; type: ADME, organism-based; settings: in vivo, read-out: Vdss
[6] = target: Proto-oncogene tyrosine-protein kinase receptor Ret (Homo sapiens, UniProt P07949); experiment: Inhibition of RET (658 to 1072) (unknown origin) by HTRF assay
Chain of Proto-oncogene tyrosine-protein kinase receptor Ret (P07949 whole entry): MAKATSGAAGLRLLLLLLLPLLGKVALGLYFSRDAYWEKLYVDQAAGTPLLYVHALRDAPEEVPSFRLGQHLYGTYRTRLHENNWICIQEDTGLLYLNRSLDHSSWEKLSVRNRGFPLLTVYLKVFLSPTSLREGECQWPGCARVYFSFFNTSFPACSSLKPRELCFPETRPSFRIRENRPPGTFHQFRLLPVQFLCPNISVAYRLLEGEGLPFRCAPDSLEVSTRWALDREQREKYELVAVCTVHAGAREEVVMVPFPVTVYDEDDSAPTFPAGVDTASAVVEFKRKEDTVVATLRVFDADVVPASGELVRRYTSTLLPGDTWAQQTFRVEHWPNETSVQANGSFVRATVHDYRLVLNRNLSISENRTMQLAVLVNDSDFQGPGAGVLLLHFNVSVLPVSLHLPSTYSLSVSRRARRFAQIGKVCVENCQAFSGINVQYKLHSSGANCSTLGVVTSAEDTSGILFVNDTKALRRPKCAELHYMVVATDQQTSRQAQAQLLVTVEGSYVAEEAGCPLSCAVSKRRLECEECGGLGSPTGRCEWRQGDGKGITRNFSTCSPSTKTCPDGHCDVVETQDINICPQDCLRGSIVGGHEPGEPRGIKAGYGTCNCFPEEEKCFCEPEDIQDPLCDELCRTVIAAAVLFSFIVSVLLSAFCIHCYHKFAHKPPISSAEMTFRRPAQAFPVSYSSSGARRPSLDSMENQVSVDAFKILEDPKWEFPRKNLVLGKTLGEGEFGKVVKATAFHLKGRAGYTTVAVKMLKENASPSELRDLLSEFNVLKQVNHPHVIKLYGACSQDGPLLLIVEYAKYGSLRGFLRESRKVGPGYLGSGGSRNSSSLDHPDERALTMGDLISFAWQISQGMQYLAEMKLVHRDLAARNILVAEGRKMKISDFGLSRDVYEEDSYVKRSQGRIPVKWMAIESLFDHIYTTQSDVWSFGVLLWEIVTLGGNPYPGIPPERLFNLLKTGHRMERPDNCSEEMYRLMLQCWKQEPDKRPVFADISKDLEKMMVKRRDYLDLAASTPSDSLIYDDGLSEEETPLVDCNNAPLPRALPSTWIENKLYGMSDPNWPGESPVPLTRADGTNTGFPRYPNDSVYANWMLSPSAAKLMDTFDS

[7] = Clearance in BALB/c mouse at 3.4 mg/kg, iv measured by LC-MS/MS analysis; type: ADME, organism-based; settings: in vivo
[8] = Half life in BALB/c mouse at 3.4 mg/kg, iv measured by LC-MS/MS analysis; type: ADME, organism-based; settings: in vivo
[9] = Cmax in BALB/c mouse at 3.4 mg/kg, iv measured by LC-MS/MS analysis; type: ADME, organism-based; design: route intravenous, dose 3.4 mg/kg; settings: in vivo
[10] = Half life in BALB/c mouse at 13.5 mg/kg, po measured by LC-MS/MS analysis; type: ADME, organism-based; settings: in vivo
[11] = Oral bioavailability in BALB/c mouse at 13.5 mg/kg measured by LC-MS/MS analysis; type: ADME, organism-based; settings: in vivo
[12] = AUC in nude mouse xenografted with KIF5B-RET BaF3 cells xenografted at 10 mg/kg, po qd for 14 days; type: ADME, organism-based; design: time 14 day, dose 10 mg/kg; settings: in vivo
[13] = target: T1, Voltage-gated inwardly rectifying potassium channel KCNH2 (Homo sapiens, UniProt Q12809); experiment: Displacement of [3H]-dofetilide from human ERG expressed in CHO cell after 90 mins by microbeta liquid scintillation counting method; type: cell-based
T1 sequence (Q12809 whole entry): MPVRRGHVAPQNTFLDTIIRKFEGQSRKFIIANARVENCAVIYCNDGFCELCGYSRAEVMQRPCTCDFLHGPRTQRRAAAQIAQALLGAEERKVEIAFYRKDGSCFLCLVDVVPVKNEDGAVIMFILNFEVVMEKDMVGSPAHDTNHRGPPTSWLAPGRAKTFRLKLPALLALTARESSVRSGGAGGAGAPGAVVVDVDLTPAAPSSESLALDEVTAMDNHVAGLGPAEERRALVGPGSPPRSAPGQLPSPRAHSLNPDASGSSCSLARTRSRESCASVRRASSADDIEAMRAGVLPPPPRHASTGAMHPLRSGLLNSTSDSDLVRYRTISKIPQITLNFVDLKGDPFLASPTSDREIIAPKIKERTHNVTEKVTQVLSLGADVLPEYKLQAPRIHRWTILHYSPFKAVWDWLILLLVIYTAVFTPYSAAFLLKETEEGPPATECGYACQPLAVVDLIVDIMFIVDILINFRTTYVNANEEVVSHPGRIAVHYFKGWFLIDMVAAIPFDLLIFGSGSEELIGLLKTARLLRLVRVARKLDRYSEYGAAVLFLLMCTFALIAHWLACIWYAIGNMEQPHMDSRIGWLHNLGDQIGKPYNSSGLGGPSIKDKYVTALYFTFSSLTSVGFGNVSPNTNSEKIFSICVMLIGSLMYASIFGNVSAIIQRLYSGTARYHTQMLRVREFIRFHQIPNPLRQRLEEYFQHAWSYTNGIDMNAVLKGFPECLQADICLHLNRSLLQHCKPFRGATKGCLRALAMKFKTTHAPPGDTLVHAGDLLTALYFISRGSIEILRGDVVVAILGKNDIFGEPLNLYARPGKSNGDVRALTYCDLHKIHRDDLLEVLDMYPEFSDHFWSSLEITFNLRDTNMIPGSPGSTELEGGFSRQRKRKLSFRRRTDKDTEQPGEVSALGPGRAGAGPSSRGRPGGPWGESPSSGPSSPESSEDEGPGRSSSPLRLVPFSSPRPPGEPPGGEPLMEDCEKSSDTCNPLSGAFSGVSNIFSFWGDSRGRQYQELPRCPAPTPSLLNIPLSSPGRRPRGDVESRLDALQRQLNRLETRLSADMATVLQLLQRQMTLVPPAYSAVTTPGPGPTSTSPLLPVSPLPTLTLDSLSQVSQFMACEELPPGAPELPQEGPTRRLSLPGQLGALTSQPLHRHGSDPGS

[14] = Cmax in BALB/c mouse at 10 mg/kg, po measured by LC-MS/MS analysis; type: ADME, organism-based; design: route oral, dose 10 mg/kg; settings: in vivo
[15] = Toxicity in nude mouse transfected with mouse KIF5B-RET BaF3 cells assessed as adverse effect at 10 mg/kg, po qd measured after 14 days; type: organism-based; settings: in vivo, 336 h, time 14 day
[16] = Oral bioavailability in BALB/c mouse at 10 mg/kg measured by LC-MS/MS analysis; type: ADME, organism-based; settings: in vivo
[17] = AUC in BALB/c mouse at 10 mg/kg, po measured by LC-MS/MS analysis; type: ADME, organism-based; design: dose 10 mg/kg; settings: in vivo
Mus musculus [18] = experiment: Antitumor activity against mouse KIF5B-RET BaF3 cells xenografted in nude mouse assessed as tumor regression at 10 mg/kg, po qd measured after 16 days; type: functional, organism-based; settings: time 16.0 day
[19] = Cmax in nude mouse xenografted with KIF5B-RET BaF3 cells xenografted at 10 mg/kg, po qd for 14 days; type: ADME, organism-based; design: route oral, time 14 day, dose 10 mg/kg; settings: in vivo
[20] = Half life in BALB/c mouse at 2 mg/kg, iv measured by LC-MS/MS analysis; type: ADME, organism-based; settings: in vivo
[21] = target: T1, Voltage-gated inwardly rectifying potassium channel KCNH2; experiment: Inhibition of human ERG expressed in CHO cells by manual patch clamp assay; type: cell-based
[22] = AUC in BALB/c mouse at 2 mg/kg, iv measured by LC-MS/MS analysis; type: ADME, organism-based; design: dose 2 mg/kg; settings: in vivo
[23] = Half life in BALB/c mouse at 10 mg/kg, po measured by LC-MS/MS analysis; type: ADME, organism-based; settings: in vivo
[24] = Volume of distribution at steady state in BALB/c mouse at 2 mg/kg, iv measured by LC-MS/MS analysis; type: ADME, organism-based; settings: in vivo, read-out: Vdss
[25] = Clearance in BALB/c mouse at 2 mg/kg, iv measured by LC-MS/MS analysis; type: ADME, organism-based; settings: in vivo
[26] = Cmax in BALB/c mouse at 2 mg/kg, iv measured by LC-MS/MS analysis; type: ADME, organism-based; design: route intravenous, dose 2 mg/kg; settings: in vivo
[27] = Plasma protein binding in mouse at 5 uM measured after 16 hrs by LC-MS/MS based rapid equilibrium dialysis analysis; type: ADME, cell-free; settings: read-out: PPB (converted)
[28] = fAUC in nude mouse xenografted with KIF5B-RET BaF3 cells xenografted at 10 mg/kg, po qd for 14 days; type: ADME, organism-based; settings: in vivo, 336 h, time 14 day
[29] = fCmax in nude mouse xenografted with KIF5B-RET BaF3 cells xenografted at 10 mg/kg, po qd for 14 days; type: ADME, organism-based; settings: in vivo, 336 h, time 14 day
BaF3 [30] = experiment: Antitumor activity against mouse KIF5B-RET BaF3 cells xenografted in nude mouse assessed as tumor regression at 60 mg/kg, po qd measured after 14 days; type: functional, organism-based; settings: time 14.0 day
[31] = target: Proto-oncogene tyrosine-protein kinase receptor Ret (Mus musculus) (UniProt P35546); experiment: In vivo inhibition of RET phosphorylation in mouse KIF5B-RET BaF3 cells transfected in nude mouse […] at 60 mg/kg, po qd measured after 5 hrs; type: functional, organism-based
[32] = Toxicity in nude mouse transfected with mouse KIF5B-RET BaF3 cells assessed as adverse effect at 10 to 60 mg/kg, po qd measured after 14 days; type: organism-based; settings: in vivo, 336 h, dose 10-60 mg/kg, time 14 day
[33] = fAUC in nude mouse xenografted with KIF5B-RET BaF3 cells xenografted at 60 mg/kg, po qd for 14 days; type: ADME, organism-based; settings: in vivo, 336 h, time 14 day
[34] = AUC in nude mouse xenografted with KIF5B-RET BaF3 cells xenografted at 60 mg/kg, po qd for 14 days; type: ADME, organism-based; design: time 14 day, dose 60 mg/kg; settings: in vivo
[35] = Toxicity in nude mouse transfected with mouse KIF5B-RET BaF3 cells assessed as body weight loss at 10 to 60 mg/kg, po qd measured after 14 days; type: organism-based; settings: in vivo, 336 h, dose 10-60 mg/kg, time 14 day
[36] = Cmax in nude mouse xenografted with KIF5B-RET BaF3 cells xenografted at 60 mg/kg, po qd for 14 days; type: ADME, organism-based; design: route oral, time 14 day, dose 60 mg/kg; settings: in vivo
[37] = fCmax in nude mouse xenografted with KIF5B-RET BaF3 cells xenografted at 60 mg/kg, po qd for 14 days; type: ADME, organism-based; settings: in vivo, 336 h, time 14 day
Mus musculus [38] = experiment: Antitumor activity against mouse KIF5B-RET BaF3 cells xenografted in nude mouse assessed as tumor regression at 30 mg/kg, po qd measured after 16 days; type: functional, organism-based; settings: time 16.0 day
BaF3 [39] = experiment: Antitumor activity against mouse KIF5B-RET BaF3 cells xenografted in nude mouse assessed as tumor regression at 1 to 10 mg/kg, po qd measured after 16 days; type: functional, organism-based; settings: dose 1-10 mg/kg, time 16.0 day
BaF3 [40] = settings: Mus musculus, dose 10.0 mg/kg, time 21.0 day
[41] = Toxicity in nude mouse transfected with mouse KIF5B-RET BaF3 cells assessed as adverse effect at 30 mg/kg, po qd measured after 14 days; type: organism-based; settings: in vivo, 336 h, time 14 day
[42] = Cmax nude mouse xenografted with KIF5B-RET BaF3 cells xenografted at 3 mg/kg, po qd for 14 days; type: ADME, organism-based; design: route oral, time 14 day, dose 3 mg/kg; settings: in vivo
[43] = fCmax in nude mouse xenografted with KIF5B-RET BaF3 cells xenografted at 3 mg/kg, po qd for 4 days; settings: in vivo, 96 h
[44] = AUC in nude mouse xenografted with KIF5B-RET BaF3 cells xenografted at 3 mg/kg, po qd for 14 days; type: ADME, organism-based; design: time 14 day, dose 3 mg/kg; settings: in vivo
[45] = fAUC in nude mouse xenografted with KIF5B-RET BaF3 cells xenografted at 3 mg/kg, po qd for 4 days; settings: in vivo, 96 h
BaF3 [46] = experiment: Antitumor activity against mouse KIF5B-RET BaF3 cells xenografted in nude mouse assessed as tumor regression at 3 mg/kg, po qd measured after 12 days; settings: time 12.0 day

Row | Structure (SMILES) | IC50 (BaF3 [1]) [µM] | Cmax [14] [µM] | bioavailability [16] [%] | AUC [17] [µM·h] | half-life [20] [h] | AUC [22] [µM·h] | half-life [23] [h] | Vd [24] [L/kg] | clearance [25] [L/h/kg] | Cmax [26] [µM] | fraction unbound at 16 h, 5 µM [27] | other results
1 | CC(=O)N1CCN([C@H]2C[C@@H](n3cc(-c4ccc(O)cc4)c4c(N)ncnc43)C2)CC1 | > 10 | – | – | – | – | – | – | – | – | – | – | –
2 | CC(=O)N1CCN([C@H]2C[C@@H](n3cc(-c4ccccc4O)c4c(N)ncnc43)C2)CC1 | > 10 | – | – | – | – | – | – | – | – | – | – | –
3 | CC(=O)N1CCN([C@H]2C[C@@H](n3cc(-c4cccc(O)c4)c4c(N)ncnc43)C2)CC1 | > 10 | – | – | – | – | – | – | – | – | – | – | –
4 | CC(=O)N1CCN([C@H]2C[C@@H](n3cc(-c4cc(O)ccc4F)c4c(N)ncnc43)C2)CC1 | – | – | – | – | – | – | – | – | – | – | – | Cmax [2]: 0.2 µM; AUC [3]: 2 µM·h; IC50 (Bcr/Abl fusion protein): 4.2 µM; AUC [4]: 0.3 µM·h; Vd [5]: 1.4 L/kg; IC50 [6]: 0.00054 µM; clearance [7]: 3.9 L/h/kg; half-life [8]: 1.6 h; Cmax [9]: 6.4 µM; half-life [10]: 1.3 h; bioavailability [11]: 4%
5 | Nc1ncnc2c1c(-c1cccc(O)c1)cn2C1CCCC1 | 1.6 | – | – | – | – | – | – | – | – | – | – | –
6 | COc1cc(-c2cn([C@H]3C[C@@H](N4CCN(C(C)=O)CC4)C3)c3ncnc(N)c23)ccc1Cl | > 10 | – | – | – | – | – | – | – | – | – | – | –
7 | COC(=O)N[C@H]1CC[C@@H](n2cc(-c3ccc(Cl)c(N)c3)c3c(N)ncnc32)CC1 | 4.6 | 10 | 60 | 120 | 3 | 41 | 3.7 | 0.37 | 0.114 | 14 | 0.031 | AUC at 336 h [12]: 50 µM·h; IC50 [13]: 25 µM; Activity [15]: Non-Toxic; Activity (Mus musculus [18]): Active; Cmax [19]: 8.3 µM; IC50 [21]: 5.3 µM; fAUC [28]: 1.6 µM·h; fCmax [29]: 0.26 µM
8 | CC(=O)N1CCN([C@H]2C[C@@H](n3cc(-c4ccc(Cl)c(N)c4)c4c(N)ncnc43)C2)CC1 | 4.6 | 3.8 | 48 | 12 | 1.2 | 5 | 2.4 | 1.3 | 0.9 | 5.1 | 0.356 | Activity (BaF3 [30]): Active; inhibition [31]: Active; Activity [32]: Non-Toxic; fAUC [33]: 41 µM·h; AUC at 336 h [34]: 115 µM·h; Activity [35]: Non-Toxic; Cmax [36]: 19 µM; fCmax [37]: 6.8 µM
9 | COC(=O)NC12CCC(n3cc(-c4cc(N)c(Cl)cc4F)c4c(N)ncnc43)(CC1)CC2 | 4.1 | 7.9 | 78 | 160 | 16 | 40 | 19 | 2.4 | 0.108 | 3.5 | 0.0065 | Activity (Mus musculus [38]): Active; AUC at 336 h [12]: 136 µM·h; IC50 [13]: > 30 µM; Activity (BaF3 [39]): Active; Activity (Mus musculus [18]): Active; Cmax [19]: 8.4 µM; IC50 [21]: 6 µM; fAUC [28]: 0.9 µM·h; inhibition (BaF3 [40]): Active; Activity [41]: Non-Toxic; fCmax [29]: 0.055 µM
10 | CC(=O)N1CCN([C@H]2C[C@@H](n3cc(-c4ccc(Cl)c(O)c4)c4c(N)ncnc43)C2)CC1 | 3.7 | – | – | – | – | – | – | – | – | – | – | –
11 | COC(=O)NC12CCC(n3cc(-c4ccc(Cl)c(N)c4)c4c(N)ncnc43)(CC1)CC2 | 2.6 | 9.5 | 58 | 160 | 10 | 54 | 22 | 1.1 | 0.084 | 5.6 | 0.0042 | Cmax [42]: 7.4 µM; IC50 [13]: 9.9 µM; Activity [15]: Non-Toxic; IC50 [21]: 3 µM; fCmax [43]: 0.031 µM; AUC at 336 h [44]: 106 µM·h; fAUC [45]: 0.45 µM·h; Activity (BaF3 [46]): Active; Activity [41]: Non-Toxic
12 | Nc1ncnc2c1c(-c1cccc(O)c1)cn2[C@H]1C[C@@H](CO)C1 | – | – | – | – | – | – | – | – | – | – | – | IC50 (Bcr/Abl fusion protein): 0.043 µM
